Laboratory results taken from patent publication US7507281B2, “Antimicrobial cementitious composition, method and article” (Microban Products Company, priority 2005, dated 2009).

What was measured:
K. pneumoniae = experiment: Zone of inhibition of fresh cured BAL grout discs, K. pneumoniae (Example 1); type: cell-based; conditions: Klebsiella pneumoniae
S. aureus = experiment: Zone of inhibition of fresh cured BAL grout discs, S. aureus (Example 1); type: cell-based; conditions: Staphylococcus aureus
Aspergillus niger = experiment: AATCC 30 Part III antifungal test of grout discs after QUV/Xenon exposure and water-spray neutralization (Example 2); type: cell-based; conditions: for Growth A. niger: weathered and pH-neutralized, 168-hour incubation, sulfate
Method: Grout samples were prepared and cured as in Example 1, with antimicrobial agent admixed into the dry compound at levels of 0 ppm, 1000 ppm, and 2000 ppm based upon the total weight of the dry mix and antimicrobial agent (excluding water). Water was added, the slurry mixed, and 1.5-inch diameter pucks cast.
After air-curing, the samples were exposed for eight hours in either of QUV/Spray Accelerated Weathering Controller or Xenon Testing Chamber Xe-3HS (both by Q-Panel Lab Products, Cleveland, Ohio). The QUV exposure is an assay well known in the art for simulating aging, discoloration and/or degradation caused by conditions of ultraviolet radiation exposure, such as would be encountered in an outdoor application.
Thereafter, the sample discs were subjected to one hour of water spray, followed by one hour of condensation, alternatingly repeated for a total of eight hours. This treatment neutralizes the pH of the grout samples, simulating brief real-world exposure of the grout articles to, e.g., a shower stall application.
Samples then were plated against Aspergillus niger using the 30 Part III test. At the end of the 168-hour incubation period, the test plates were removed from the test chamber and the samples were evaluated for fungal attack and encroachment. The antimicrobial agent tested and the results of the evaluation are shown in Table 2; control and experimental plates are shown in FIGS. 1-3.

Thermal stability = type: physicochemical
Method: This species also appears to be thermally stable up to 160° C. and above. Thermal stability makes imazalil agent especially well-suited for inclusion in the production of cementitious powder by various manufacturers, as these powders are typically dried and packed at elevated temperatures. Many other antimicrobial/antifungal agents tend to discolor and clump when so thermally exposed.

[1] = UV stability / discoloration under ultraviolet irradiation; type: physicochemical; conditions: UVA 340 lamps, 168 hrs
Text: Resistance to ultraviolet radiation and discoloring is advantageous given the typical outdoor environment of cured cementitious articles.

[2] = 1000 ppm imazalil sulfate in BAL grout disc, fresh cured
[3] = 2000 ppm imazalil sulfate in BAL grout disc, fresh cured

## C=CCOC(Cn1ccnc1)c1ccc(Cl)cc1Cl.O=S(=O)(O)O (racemic) [Imazalil Sulfate, (±)-1-[2-(2,4-dichlorophenyl)-2-(2-propenyloxy)ethyl]-1H-imidazole sulfate]
K. pneumoniae; BAL, read-out: Zone of Inhibition, mm K. pneumoniae
  zone of inhibition at 500 ppm: 5 mm
K. pneumoniae; [2]
  zone of inhibition at 1000 ppm: 5 mm
K. pneumoniae; [3]
  zone of inhibition at 2000 ppm: 5 mm
S. aureus; BAL, read-out: Zone of Inhibition, mm S. aureus
  zone of inhibition at 500 ppm: 5 mm
S. aureus; [2]
  zone of inhibition at 1000 ppm: 6 mm
S. aureus; [3]
  zone of inhibition at 2000 ppm: 6 mm
Aspergillus niger; 1000 ppm imazalil sulfate in grout disc
  Growth A. niger: no growth
Aspergillus niger; 2000 ppm imazalil sulfate in grout disc
  Growth A. niger: no growth

## C=CCOC(Cn1ccnc1)c1ccc(Cl)cc1Cl (racemic) [imazalil agent, (±)-1-[2-(2,4-dichlorophenyl)-2-(2-propenyloxy)ethyl]-1H-imidazole]
Aspergillus niger; 1000 ppm imazalil agent in BAL grout, Aspergillus niger
  Resistance of grout puck to fungal attack (FIG. 2): strong resistance to fungal attack
Aspergillus niger; 2000 ppm imazalil agent in BAL grout, Aspergillus niger
  Disruption to fungal encroachment by grout sample (FIG. 3): significant disruption to fungal encroachment
Thermal stability
  Thermally stable up to: ≥ 160 °C
[1]
  Discoloration after prolonged exposure to ultraviolet irradiation: no discoloration
